Source: patent publication US10730875B2, “Substituted imidazo[1,2-A]pyridin-2-ylamine compounds, and pharmaceutical compositions and methods of use thereof” (JN Therapeutics, priority 2015, dated 2020)

What was measured:
[1] = target: human Janus kinase 1 (JAK1), recombinant catalytic domain (Homo sapiens (Human), UniProt P23458); assay: LanthaScreen TR-FRET enzymatic assay, JAK1; type: biochemical; conditions: 1 mM ATP, GFP-STAT1 substrate, read-out: Inhibitory Activity IC50 JAK1
Method: (§1) The in vitro inhibition of recombinant human JAKs was determined as follow.
(§2) Compounds were tested in LANTHASCREEN™ time-resolved fluorescence energy transfer (TR-FRET) enzymatic assays from Invitrogen. The human Janus kinase 1 (JAK1) used in the assay is the recombinant JAK1 catalytic domain (amino acids 866-1154) expressed and purified from insect cells (Invitrogen, Cat. No. PV4774). The human Janus kinase 2 (JAK2) used in the assay is the recombinant JAK2 catalytic domain (amino acids 808-1132) expressed and purified from insect cells (Invitrogen, Cat. No. PV4210). The human Janus kinase 3 (JAK3) used in the assay is the recombinant JAK3 catalytic domain (amino acids 781-1124) expressed and purified from insect cells (Invitrogen, Cat. No. PV3855). The human tyrosine kinase 2 (TYK2) used in the assay is the recombinant TYK2 catalytic domain (amino acids 833-1187) expressed and purified from insect cells (Invitrogen, Cat. No. PV4790). The substrate is a recombinant STAT1 expressed as a fusion with GFP (Green Fluorescent Protein) to act as a physiological substrate (Invitrogen, Cat. No. PV5211).
(§3) Test compounds were prepared and diluted in DMSO in 3-fold serial dilutions for 10 doses to 100× of the final testing concentrations. The compounds were then further diluted to 4× by the kinase reaction buffer (Invitrogen, Cat. No. PV3189). The enzymatic reaction for compound testing was performed in a white 384-well polypropylene plate (Packard, Cat. No. 6005214) with a total reaction volume of 10 μL containing 440 ng/mL JAK1, 11 ng/mL JAK2, 400 ng/mL JAK3, or 200 ng/mL TYK2, 100 nM substrate, and 1 mM ATP. The assay started with loading 2.5 μL of JAK1, JAK2, JAK3, or TYK2 diluted in the kinase reaction buffer to wells, followed by addition of an equal volume of 4× compounds for 15-min incubation at room temperature for pre-treatment. The enzymatic reaction was initiated by addition of 5 μL of a mixture of the substrate and ATP prepared in the kinase reaction buffer. After one hour reaction, 10 μL mixture of EDTA (final 10 mM) and terbium-labeled anti-pSTAT1 (pTyr701) antibody (final 2 nM) (Invitrogen, Cat. No. PV4844) prepared in TR-FRET antibody dilution buffer (Invitrogen, Cat. No. PV3574) was added to stop the enzymatic reaction and produce TR-FRET signals. After 30 minutes of incubation at room temperature, the plate was read in Tecan Infinite F200 Pro with the following settings: Excitation 340 nm (30)/Emission1 495 nm (10)/Emission2 520 nm (25). The TR-FRET values were dimensionless numbers that were calculated as the ratio of the acceptor ([…]) signal to the donor (Terbium) signal. Percent of inhibition was calculated as (100%−percentage of compound-treated/DMSO vehicle-treated). The dose-response curves were generated and the IC50s were calculated by nonlinear sigmoid curve fitting using GraphPad Prism.
(§4) In Table 1, A represents a value no greater than 500 nM, B represents a value greater than 500 nM but no greater than 1 μM, C represents a value greater than 1 μM but no greater than 5 μM, and D represents a value greater than 5 μM. In Table 2, A′ represents a ratio of greater than 8, B′ represents a ratio of no greater than 8 but no less than 4, C′ represents a ratio of no greater than 4 but no less than 2, and D′ represents a ratio of no greater than 2. The selectivity is expressed as a ratio of the IC50 values of a compound against two kinases to be compared.

[2] = target: human Janus kinase 2 (JAK2), recombinant catalytic domain (Homo sapiens (Human), UniProt O60674); assay: LanthaScreen TR-FRET enzymatic assay, JAK2; type: biochemical
Method: as §1, §2, §3, §4

JAK1 = JAK1 (Homo sapiens (Human), UniProt P23458); assay: Cellular JAK1 assay: IL-6-mediated STAT3 phosphorylation in TF-1 cells; type: cell-based; conditions: IL-6 stimulation, STAT3 phosphorylation at Tyr705 (AlphaLISA), read-out: Inhibitory Activity Against JAK1 IC50
Method: The cellular potency of a compound on JAK1 or JAK2 inhibition is determined by measuring the cytokine-mediated phosphorylation of STAT proteins in TF-1 cells.
Human cytokines of IL-6 (R&D Systems, Cat. No. 206-IL-010/CF) and GM-CSF (R&D Systems, Cat. No. 215-GM-010/CF) are reconstituted at 10 μg/mL in D-PBS containing 0.1% BSA (Sigma, Cat. No. A8577) and human EPO (R&D Systems, Cat. No. 287-TC-500) at 500 U/mL in D-PBS containing 0.1% BSA. TF-1 cells (ATCC, CRL-2003) were grown in RPMI1640 (ATCC, Cat. No. 30-2001) supplemented with 2 ng/mL of recombinant human GM-CSF, 10% FBS (Gibco, Cat. No. 10437-028), and 100 U/mL penicillin-streptomycin (Gibco, Cat. No. 15140-122). The cells were maintained and propagated between 1×10^5 cells/mL to 7.5×10^5 cells/mL. Aliquots of the cells from early passages were preserved for liquid nitrogen storage. Frozen vials of the cells were thawed at 37° C. water bath. The cells were spun to remove freezing medium. The newly revived frozen cells were adapted in culture for 5-7 days before used for compound testing. The cells used in for compound testing were less than 20 subculture passages or 3 months in culture.
To test compounds, the TF-1 cells were harvested at a density of 3 to 7×10^5 cells/mL by centrifugation. After removing the culture medium, the resulting cell pellet was suspended and washed once by centrifugation with HBSS buffer (Gibco, Cat. No. 14025-092) containing 0.1% BSA. The cell pellet was resuspended in HBSS buffer at 7.5×10^6 cells/mL. Four micro-liters of the cells (3×10^4 cells in total) were added to each well of a white 384-well plate (Packard, Cat. No. 6005214).
The compounds were first diluted in dimethylsulfoxide (DMSO) (Sigma, Cat. No. D2650) to generate 9 3-fold diluted dosing concentrations in a 96-well polypropylene plate (Corning, Cat. No. 3365), followed by addition of HBSS buffer for another 125-fold dilution. To the cells, 2 μL of the diluted compounds were added and mixed by tapping the plate several times. The cells were incubated for 2 hrs of treatment. DMSO was used as a control and similarly diluted along and added to the cells.
To assay JAK1 inhibition, 2 μL of IL-6 diluted at 400 ng/mL (4×) in HBSS containing 0.1% BSA was added to the treated cells. The cells were then incubated for 30 min of cytokine treatment and lysed at the end by addition of 2 μL of 5×AlphaLISA SureFire Ultra lysis buffer from Perkin Elmer. The plate was agitated on a plate shaker for 10 min at room temperature. The cellular JAK1 activity was determined by measuring STAT3 phosphorylation at Tyr705 in lysates using the AlphaLISA SureFire Ultra kit (Perkin Elmer, Cat. No. ALSU-PST3-A500). A volume of 5 μL of acceptor mix and donor mix was added sequentially to lysates following the product protocol. The assay signals were recorded on EnVision plate reader (Perkin Elmer) with AlphaScreen optics setting.
The results are summarized in Table 3, where A represents a value no greater than 500 nM, B represents a value greater than 500 nM but no greater than 1 μM, C represents a value greater than 1 μM but no greater than 5 μM, and D represents a value greater than 5 μM.

[3] = target: human tyrosine kinase 2 (TYK2), recombinant catalytic domain (Homo sapiens (Human), UniProt P29597); assay: LanthaScreen TR-FRET enzymatic assay, TYK2; type: biochemical; conditions: TR-FRET, 1 mM ATP, GFP-STAT1 substrate; read-out: Inhibitory Activity IC50 TYK2
Method: as §1, §2, §3, §4

[4] = system: human tyrosine kinase 2 (TYK2), recombinant catalytic domain; assay: LanthaScreen TR-FRET enzymatic assay, TYK2; type: biochemical; conditions: ratio of IC50 against TYK2 over IC50 against JAK1
Method: as §1, §2, §3, §4

[5] = system: human Janus kinase 3 (JAK3), recombinant catalytic domain; assay: LanthaScreen TR-FRET enzymatic assay, JAK3; type: biochemical; conditions: ratio of IC50 against JAK3 over IC50 against JAK1
Method: as §1, §2, §3, §4

[6] = target: human Janus kinase 3 (JAK3), recombinant catalytic domain (Homo sapiens (Human), UniProt P52333); assay: LanthaScreen TR-FRET enzymatic assay, JAK3; type: biochemical; conditions: TR-FRET, 1 mM ATP, GFP-STAT1 substrate; read-out: Inhibitory Activity IC50 JAK3
Method: as §1, §2, §3, §4

Chain of human Janus kinase 2 (JAK2), recombinant catalytic domain (O60674 808-1132): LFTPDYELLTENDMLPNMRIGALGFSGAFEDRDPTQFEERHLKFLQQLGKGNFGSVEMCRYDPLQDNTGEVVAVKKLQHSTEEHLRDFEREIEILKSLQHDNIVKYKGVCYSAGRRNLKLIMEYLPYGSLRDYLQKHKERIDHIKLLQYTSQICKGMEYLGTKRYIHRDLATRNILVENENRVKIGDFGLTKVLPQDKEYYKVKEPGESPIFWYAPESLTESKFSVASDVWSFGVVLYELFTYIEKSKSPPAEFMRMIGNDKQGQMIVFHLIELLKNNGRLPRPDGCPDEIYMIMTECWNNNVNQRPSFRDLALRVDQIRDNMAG
Chain of human Janus kinase 3 (JAK3), recombinant catalytic domain (Homo sapiens (Human), UniProt P52333) (P52333 781-1124): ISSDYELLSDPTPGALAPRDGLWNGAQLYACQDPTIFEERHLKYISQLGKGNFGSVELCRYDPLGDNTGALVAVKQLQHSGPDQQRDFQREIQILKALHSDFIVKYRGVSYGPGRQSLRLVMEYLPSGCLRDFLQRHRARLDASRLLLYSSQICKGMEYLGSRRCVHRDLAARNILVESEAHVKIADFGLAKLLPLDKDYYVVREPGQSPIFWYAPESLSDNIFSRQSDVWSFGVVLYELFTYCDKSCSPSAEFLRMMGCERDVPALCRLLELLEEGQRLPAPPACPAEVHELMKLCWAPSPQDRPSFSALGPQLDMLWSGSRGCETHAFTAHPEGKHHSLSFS
Chain of human Janus kinase 1 (JAK1), recombinant catalytic domain (P23458 866-1154): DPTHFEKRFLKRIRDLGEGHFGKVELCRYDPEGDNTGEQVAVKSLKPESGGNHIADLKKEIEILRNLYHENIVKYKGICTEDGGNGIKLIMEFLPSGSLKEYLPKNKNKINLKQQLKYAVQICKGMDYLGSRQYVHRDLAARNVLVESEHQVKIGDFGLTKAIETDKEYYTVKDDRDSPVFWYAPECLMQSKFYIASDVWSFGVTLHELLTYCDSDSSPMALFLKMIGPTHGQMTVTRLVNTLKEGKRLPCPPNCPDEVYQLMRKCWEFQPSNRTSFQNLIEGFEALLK
Chain of JAK1 (P23458 whole entry): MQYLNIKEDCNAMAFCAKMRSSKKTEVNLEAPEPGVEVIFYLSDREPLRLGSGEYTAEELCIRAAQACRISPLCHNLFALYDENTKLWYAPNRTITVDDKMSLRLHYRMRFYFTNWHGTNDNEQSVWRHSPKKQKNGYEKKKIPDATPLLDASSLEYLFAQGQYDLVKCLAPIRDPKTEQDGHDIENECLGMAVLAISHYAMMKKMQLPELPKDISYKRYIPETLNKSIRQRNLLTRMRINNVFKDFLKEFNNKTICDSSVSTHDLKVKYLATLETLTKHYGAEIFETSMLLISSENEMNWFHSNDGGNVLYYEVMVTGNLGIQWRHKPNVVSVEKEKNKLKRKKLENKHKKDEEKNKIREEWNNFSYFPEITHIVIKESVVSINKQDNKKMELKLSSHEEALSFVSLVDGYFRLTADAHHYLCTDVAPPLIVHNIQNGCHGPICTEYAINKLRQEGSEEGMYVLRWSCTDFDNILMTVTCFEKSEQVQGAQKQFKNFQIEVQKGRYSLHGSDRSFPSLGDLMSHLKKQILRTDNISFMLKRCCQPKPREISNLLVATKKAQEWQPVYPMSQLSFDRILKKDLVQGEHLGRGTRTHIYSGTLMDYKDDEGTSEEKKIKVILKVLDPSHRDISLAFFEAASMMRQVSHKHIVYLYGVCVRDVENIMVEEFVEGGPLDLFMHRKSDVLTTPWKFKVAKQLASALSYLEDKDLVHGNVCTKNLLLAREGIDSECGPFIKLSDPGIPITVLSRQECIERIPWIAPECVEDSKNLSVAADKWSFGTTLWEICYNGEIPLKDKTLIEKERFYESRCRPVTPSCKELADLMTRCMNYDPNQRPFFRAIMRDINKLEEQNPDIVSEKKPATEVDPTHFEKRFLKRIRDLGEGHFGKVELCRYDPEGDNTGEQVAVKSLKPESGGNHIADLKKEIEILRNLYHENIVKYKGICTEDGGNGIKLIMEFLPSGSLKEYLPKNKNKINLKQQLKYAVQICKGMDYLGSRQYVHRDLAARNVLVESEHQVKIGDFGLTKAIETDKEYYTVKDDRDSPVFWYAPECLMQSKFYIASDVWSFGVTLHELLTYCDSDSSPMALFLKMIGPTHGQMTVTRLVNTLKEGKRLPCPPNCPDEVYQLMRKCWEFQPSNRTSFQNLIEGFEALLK
Chain of human tyrosine kinase 2 (TYK2), recombinant catalytic domain (Homo sapiens (Human), UniProt P29597) (P29597 833-1187): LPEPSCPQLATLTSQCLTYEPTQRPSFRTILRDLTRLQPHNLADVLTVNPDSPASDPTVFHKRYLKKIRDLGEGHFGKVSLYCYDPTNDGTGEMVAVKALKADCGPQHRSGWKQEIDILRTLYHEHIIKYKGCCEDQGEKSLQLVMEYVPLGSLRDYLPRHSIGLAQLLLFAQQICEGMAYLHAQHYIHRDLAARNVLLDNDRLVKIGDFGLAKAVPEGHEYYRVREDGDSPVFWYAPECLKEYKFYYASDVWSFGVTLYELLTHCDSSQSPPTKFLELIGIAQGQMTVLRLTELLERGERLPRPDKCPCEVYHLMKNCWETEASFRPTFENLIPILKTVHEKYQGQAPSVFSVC

IC50 [1]: ≤ 500 nM | IC50 ([2]; TR-FRET, 1 mM ATP, GFP-STAT1 substrate, read-out: Inhibitory Activity IC50 JAK2): 1000 to 5000 nM | IC50 (JAK1): ≤ 500 nM | IC50 [3]: 1000 to 5000 nM | IC50 [6]: > 5000 nM
Structure (SMILES): CC1(C)CN(C(=O)c2ccc(-c3cccc4nc(NC(=O)C5CC5)cn34)cc2F)C1 [Compound 24]
Selectivity JAK2/JAK1 ([2]; ratio of IC50 against JAK2 over IC50 against JAK1): A′ (A′ represents a ratio of greater than 8) | Selectivity TYK2/JAK1 [4]: A′ (A′ represents a ratio of greater than 8) | Selectivity JAK3/JAK1 [5]: A′ (A′ represents a ratio of greater than 8)
